Results on four molecules are retold here after patent US20220306695A1, “COMPSTATIN ANALOGUES AND THEIR MEDICAL USES” (priority 2019, published 2022).

Like-named read-outs stand apart in the source and are kept apart here. Starred links: 1 amine or outer side, 2 acyl side, 3 side chain; linkers in the order of their positions; H or OH if unused. Positions of bridges follow the written chain, without caps; N, C: chain ends. Non-standard residues stand in square brackets, D forms with d. Residues, ends and D or L forms follow the SMILES beside them. Groups on a side chain read outwards from the residue. *: point of attachment. Trp(1-Me) = Cn1cc(C[C@H](N)C(=O)O)c2ccccc21; Abu(4-yl) = O=C([C@H](CC[*:3])N[*:1])[*:2]; C18 diacid = O=C(O)CCCCCCCCCCCCCCCCC(=O)*; γGlu = O=C(O)[C@H](CCC(=O)[*:2])N[*:1]; AEEA = NCCOCCOCC(=O)O; Sar = CNCC(=O)O

One data set can be described thus: in vivo. The arrangement: species or system Cynomolgus monkeys (Macaca fascicularis). Particulars: male, cynomolgus monkey, sc, 1840 nmol/kg, t½. Here is the method:
Healthy male Cynomolgus monkeys (Macaca fascicularis) received single subcutaneous administrations of each test substance. Compounds were formulated in 20 mM phosphate adjusted with NaOH to pH 7.5 and mannitol for isotonicity and dosed at 1840 nmol/kg. Blood was collected from a femoral vein from each animal at the following times: Pre-dose, 1, 2, 4, 8, 24, 48, 72, 96 and 120 h (10 sampling times). Blood was collected into serum separation tubes and allowed to clot at room temperature. The tubes were centrifuged and resulting serum was aliquoted and snap-frozen over dry-ice and stored at nominally −80° C. until analysis. All NHP studies were performed in accordance with animal welfare laws and regulations, including approval of the study by a local ethical review process.
In order to assess pharmacokinetic half-life (t %/), serum samples isolated from non-human primates at specific time points after dosing were analysed for total drug compound after sample preparation by solid phase extraction (SPE) and liquid chromatography mass spectrometry (LC-MS/MS) using analogue internal standard. Single measurement of serum concentrations were used for calculation of the pharmacokinetic parameters using the non-compartmental approach in Phoenix WinNonlin 6.3. Plasma terminal elimination half-life (ty) was determined as In(2)/λz where λz is the magnitude of the slope of the log linear regression of the log concentration versus time profile during the terminal phase.

The format of data set [1] is physicochemical. The following applies: 50 mg/mL peptide; for Covalent oligomer content after 14 days 40° C. (%), F1 / Purity after 14 days 40° C. (%), F1: F1: 20 mM phosphate pH 5.5; for Covalent oligomer content after 14 days 40° C. (%), F1 / Covalent oligomer content after 14 days 40° C. (%), F2: denaturing SEC; for Purity after 14 days 40° C. (%), F1 / Purity after 14 days 40° C. (%), F2 / Purity after 14 days 40° C. (%), F3: normalized purity (HPLC). The method, then: Chemical stability of compstatin analogues with cystathionine or disulfide bridge. Stability was assessed in three formulations at 50 mg/mL peptide, F1:20 mM phosphate pH 5.5, F2:20 mM phosphate pH 6.5 and F3:20 mM phosphate pH 7.5. The formulations were prepared by direct dissolution of peptide from lyophilized portions in the respective formulations. pH was adjusted to target with 1 M NaOH and 1 M HCl. Chemical stability was assessed under accelerated conditions (14 days, 40° C.) and evaluated as change in purity by reverse phase HPLC, and change in covalent oligomer content by denaturing SEC. The formulations were placed at 40° C. with analysis points at T=0, 7 and 14 days. On each time point a small volume was extracted and diluted to 2 mg/mL and tested by reverse phase HPLC and denaturing SEC. Purity was assessed by reverse phase HPLC using an Ultimate 3000 system for binary gradient application equipped with a Kinetix C18 column (cat. no. 00F-4462-Y0, 150 mm×3 mm, 2.6 μm) run at 0.5 ml/min with a gradient of buffer A (0.3% TFA, aq.) and buffer B (0.3% TFA, 90% MeCN, aq.) gradient from 40% B to 70% B over 20 min. Detection was done using a diode array detector set to 220 nm. Covalent oligomer formation was assessed by denaturing SEC (size exclusion chromatography) using an Ultimate 3000 system equipped with a TSKgel SuperSW 2000 column (cat. no. 818674, 300 mm×3 mm, 4 μm) run at 0.5 ml/min with isocratic flow of buffer A (0.1% TFA, 45% MeCN, aq.), 10 min. Detection was done using a diode array detector set to 215 nm. Compounds 126 and 156 were carefully weighed out and dissolved in formulations F1, F2 and F3 to a target concentration of 50 mg/mL. Once visually dissolved, concentration was confirmed by absorbance at 280 nm, and samples were placed in stability at 40° C. Samples for analysis were extracted on T=0, 7 and 14 days from a 40° C. climate chamber. The extracted volume was dissolved 1:25 (final concentration: 2 mg/mL) in 20 mM phosphate pH 5.5, 6.5 or 7.5 and measured by reverse phase HPLC and denaturing SEC by injection of 0.4 μL (column load […]). The resulting chromatograms were integrated to determine chemical purity by reverse phase HPLC and covalent oligomer content by denaturing SEC.

Data set [2] relates to classical complement pathway. In words: In vitro haemolysis assay (inhibition of classical complement pathway). The data set is classed as cell-based, human. Particulars: Table 3; human serum, sensitized sheep red blood cells; read-out: IC50[nM], in vitro analysis of inhibition of hemolysis. The procedure, abridged:
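Serially diluted compound (9 points) was preincubated 15 min at room temperature with diluted human serum, titrated per batch to give 70-90% maximal haemolysis, in Tris/casein buffer pH 7.4 with Mg2+/Ca2+. Antibody-sensitized sheep erythrocytes were then added for 30 min at 37° C, and the reaction was stopped with EDTA. Haemolysis was read at A405, with IC50 from 4PL fit.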

In the case of `CC[C@H](C)[C@@H]1NC(=O)[C@@H](NC(=O)[C@H](Cc2ccccc2)NC(=O)[C@H](CCC(=O)O)NC(=O)[C@H](CO)NC(C)=O)CSCC[C@@H](C(=O)N(C)CC(=O)N[C@@H](CCC(=O)O)C(=O)NCC(=O)N[C@@H](CCC(=O)O)C(=O)NCCOCCOCC(=O)N[C@@H](CCC(=O)O)C(=O)N[C@@H](CO)C(=O)N[C@@H](CCCCNC(=O)CC[C@H](NC(=O)CNC(=O)CC[C@H](NC(=O)CCCCCCCCCCCCCCCCC(=O)O)C(=O)O)C(=O)O)C(N)=O)NC(=O)[C@H](CCCNC(=N)N)NC(=O)[C@H](Cc2c[nH]cn2)NC(=O)[C@H](CCC(=O)O)NC(=O)CN(C)C(=O)[C@H](Cc2c[nH]c3ccccc23)NC(=O)[C@H](CC(=O)O)NC(=O)[C@H](CCC(N)=O)NC(=O)[C@H](Cc2cn(C)c3ccccc23)NC1=O` [Compound 150, Ac-SEFA(1)I[1-Me-Trp]QDW[Sar]EHRhC(1)[Sar]EGE[Peg3]ES-K([17-carboxy-heptadecanoyl][γGlu]G[γGlu])-NH2] (Ac-SEFCI[Trp(1-Me)]QDW[Sar]EHR[Abu(4-yl)][Sar]EGE[AEEA]ESK([γGlu-Gly-γGlu-C18 diacid])-NH2; thioether 4-14), the half-life in the data set “in vivo” is 120 h. Also, in data set [1], the “Covalent oligomer content after 14 days 40° C. (%), F1” value (“Covalent oligomer content … (%), F1” below) is reported as 0.7% and the “Purity after 14 days 40° C. (%), F1” value amounted to 98%. Moreover, in data set [1] (F2: 20 mM phosphate pH 6.5), the “Covalent oligomer content after 14 days 40° C. (%), F2” value (“Covalent oligomer content … (%), F2” for short) came to 0.1% and the “Purity after 14 days 40° C. (%), F2” value came to 100%. Further, in data set [1] (F3: 20 mM phosphate pH 7.5), the “Covalent oligomer content … (%), F2” value is on record as 0.1% and the “Purity after 14 days 40° C. (%), F3” value is given as 100%. The IC50 in data set [2] is under 100 nM.
`CC[C@H](C)[C@@H]1NC(=O)[C@@H](NC(=O)[C@H](Cc2ccccc2)NC(=O)[C@H](CCC(=O)O)NC(=O)[C@H](CO)NC(C)=O)CSCC[C@@H](C(=O)N(C)CC(=O)N[C@@H](CCC(=O)O)C(=O)NCCOCCOCC(=O)NCCOCCOCC(=O)N[C@@H](CCCCNC(=O)CC[C@H](NC(=O)CNC(=O)CC[C@H](NC(=O)CCCCCCCCCCCCCCCCC(=O)O)C(=O)O)C(=O)O)C(N)=O)NC(=O)[C@H](CCCNC(=N)N)NC(=O)[C@H](Cc2c[nH]cn2)NC(=O)[C@H](CCC(=O)O)NC(=O)CN(C)C(=O)[C@H](Cc2c[nH]c3ccccc23)NC(=O)[C@H](CC(=O)O)NC(=O)[C@H](CCC(N)=O)NC(=O)[C@H](Cc2cn(C)c3ccccc23)NC1=O` [Compound 147, Ac-SEFA(1)I[1-Me-Trp]QDW[Sar]EHRhC(1)[Sar]E[Peg3][Peg3]-K([17-carboxy-heptadecanoyl][γGlu]G[γGlu])-NH2] (Ac-SEFCI[Trp(1-Me)]QDW[Sar]EHR[Abu(4-yl)][Sar]E[AEEA][AEEA]K([γGlu-Gly-γGlu-C18 diacid])-NH2; thioether 4-14) gave a half-life in “in vivo” of 108 h. Further, in data set [1], the “Covalent oligomer content … (%), F1” value turned out to be 0.6% and the “Purity after 14 days 40° C. (%), F1” value worked out at 98%. Besides, in data set [1] (F2: 20 mM phosphate pH 6.5), the “Covalent oligomer content … (%), F2” value is 0.1% and the “Purity after 14 days 40° C. (%), F2” value is on record as 99%. In data set [1] (F3: 20 mM phosphate pH 7.5), the “Covalent oligomer content … (%), F2” value is given as 0.2% and the “Purity after 14 days 40° C. (%), F3” value came out at 99%. Also, the IC50 in data set [2] was under 100 nM.
For `CC[C@H](C)[C@@H]1NC(=O)[C@@H](NC(=O)[C@H](Cc2ccccc2)NC(=O)[C@H](CCC(=O)O)NC(=O)[C@H](CO)NC(C)=O)CSSC[C@@H](C(=O)N(C)CC(=O)N[C@@H](CCC(=O)O)C(=O)NCC(=O)N[C@@H](C)C(=O)N[C@@H](CCCCNC(=O)COCCOCCNC(=O)CC[C@H](NC(=O)COCCOCCNC(=O)CNC(=O)CC[C@H](NC(=O)CCCCCCCCCCCCCCCCC(=O)O)C(=O)O)C(=O)O)C(N)=O)NC(=O)[C@H](CCCNC(=N)N)NC(=O)[C@H](Cc2c[nH]cn2)NC(=O)[C@H](CCC(=O)O)NC(=O)CNC(=O)[C@H](Cc2c[nH]c3ccccc23)NC(=O)[C@H](CC(=O)O)NC(=O)[C@H](CCC(N)=O)NC(=O)[C@H](Cc2cn(C)c3ccccc23)NC1=O` [Compound 119] (Ac-SEFCI[Trp(1-Me)]QDWGEHRC[Sar]EGAK([AEEA-γGlu-AEEA-Gly-γGlu-C18 diacid])-NH2; disulfide 4-14), the half-life in “in vivo” was 139 h. In addition, in data set [1], the “Covalent oligomer content … (%), F1” value was 80% and the “Purity after 14 days 40° C. (%), F1” value was 23%. In data set [1] (F2: 20 mM phosphate pH 6.5), the “Covalent oligomer content … (%), F2” value was determined as 66% and the “Purity after 14 days 40° C. (%), F2” value is listed as 31%. Besides, in data set [1] (F3: 20 mM phosphate pH 7.5), the “Covalent oligomer content … (%), F2” value came out at 48% and the “Purity after 14 days 40° C. (%), F3” value worked out at 46%. For the same molecule, in data set [2], the IC50 was under 100 nM.
`CC[C@H](C)[C@@H]1NC(=O)[C@@H](NC(=O)[C@H](Cc2ccccc2)NC(=O)[C@H](CCC(=O)O)NC(=O)[C@H](CO)NC(C)=O)CSSC[C@@H](C(=O)N[C@H](C(=O)N[C@@H](CCC(=O)O)C(=O)NCC(=O)N[C@@H](CCC(=O)O)C(=O)NCCOCCOCC(=O)N[C@@H](CCC(=O)O)C(=O)N[C@@H](CO)C(=O)N[C@@H](CCCCNC(=O)CC[C@H](NC(=O)CCCCCCCCCCCCCCCCC(=O)O)C(=O)O)C(N)=O)[C@@H](C)O)NC(=O)[C@H](CCCNC(=N)N)NC(=O)[C@H](Cc2c[nH]cn2)NC(=O)[C@H](CCC(=O)O)NC(=O)CNC(=O)[C@H](Cc2c[nH]c3ccccc23)NC(=O)[C@H](CC(=O)O)NC(=O)[C@H](CCC(N)=O)NC(=O)[C@H](Cc2cn(C)c3ccccc23)NC1=O` [Compound 142] (Ac-SEFCI[Trp(1-Me)]QDWGEHRCTEGE[AEEA]ESK([γGlu-C18 diacid])-NH2; disulfide 4-14): in “in vivo”, the half-life was 143 h. Besides, in data set [1], the “Covalent oligomer content … (%), F1” value worked out at 63% and the “Purity after 14 days 40° C. (%), F1” value is 50%. In data set [1] (F2: 20 mM phosphate pH 6.5), the “Covalent oligomer content … (%), F2” value turned out to be 64% and the “Purity after 14 days 40° C. (%), F2” value was 37%. Besides, in data set [1] (F3: 20 mM phosphate pH 7.5), the “Covalent oligomer content … (%), F2” value is 56% and the “Purity after 14 days 40° C. (%), F3” value was 45%. Further, the IC50 in data set [2] was under 100 nM.

The half-life is how long it takes for the measured level to halve. Broadly, the IC50 is the concentration at which inhibition is half-maximal.
